Here are results for six molecules from article PMC4982073, “Structural and kinetic studies on RosA, the enzyme catalysing the methylation of 8‐demethyl‐8‐amino‐D‐riboflavin to the antibiotic roseoflavin” (The Febs Journal, 2016).

Data set [1] addresses T1, RosA (N,N-8-demethyl-8-amino-D-riboflavin dimethyltransferase) (Streptomyces davaonensis, UniProt K4RFM2).
T1 construct: full length, hexahistidine-tagged (pET24a(+)rosA-His6, pFJ02), tag kept, E. coli Rosetta 2 (DE3); 353 amino acids; subunit 38 kDa, native 77 kDa, homodimer
Kind of data set: isothermal titration calorimetry. The data set is classed as binding. The source says:
isothermal titration calorimetry on RosA (N,N-8-demethyl-8-amino-D-riboflavin dimethyltransferase)
(In general: In ITC the heat of successive injections is recorded.)

The target of data set [2] is T1, RosA (N,N-8-demethyl-8-amino-D-riboflavin dimethyltransferase). Kind of data set: initial rates of RoF formation at […] nm, Henderson plot (tight-binding inhibition). The data set is classed as biochemical.
The target in data set [3] is N,N‐8‐demethyl‐8‐amino‐D‐riboflavin dimethyltransferase (RosA), hexahistidine‐tagged (Streptomyces davawensis). Kind of data set: SEC; Superdex 200 10/300 GL, 25 °C, 50 mM Tris-HCl pH 8.0 with 100 mM NaCl, 0.5 mL/min, calibrated with standard proteins; native mass about 77 kDa against a subunit mass of 38 kDa. (In general: In gel filtration, larger molecules generally elute earlier.)

Substrate in data set [4]: C[S+](CC[C@H](N)C(=O)O)C[C@H]1O[C@@H](n2cnc3c(N)ncnc32)[C@H](O)[C@@H]1O
The data set can be described thus: purified protein. The following applies: varied AF (20-100 μM), 50 mM Tris/HCl pH 8.0, 100 mM NaCl, 25 °C, random-order bi-bi.

Substrate in data set [5]: Cc1cc2nc3c(=O)[nH]c(=O)nc-3n(C[C@H](O)[C@H](O)[C@H](O)CO)c2cc1N
The data set can be described thus: purified protein. Type of data set: biochemical, Streptomyces davaonensis. The following applies: varied SAM (20-250 μM), 50 mM Tris/HCl pH 8.0, 100 mM NaCl, 25 °C, random-order bi-bi.

Where two headings read alike, the source gives them in different places.

`Cc1cc2nc3c(=O)[nH]c(=O)nc-3n(C[C@H](O)[C@H](O)[C@H](O)CO)c2cc1N` [AF]: in data set [1] (read-out: AF), the Kd is 10 ± 1 µM.

In general, Ki refers to the dissociation constant of the complex between target and ligand, obtained from inhibition or displacement. High values mean a looser hold on the target, low ones a stronger hold on the target. `Cc1cc2nc3c(=O)[nH]c(=O)nc-3n(C[C@H](O)[C@H](O)[C@H](O)CO)c2cc1N(C)C` [RoF]: the Kd in data set [1] (read-out: RoF) was determined as 0.8 ± 0.05 µM. Moreover, in data set [2], the affinity, expressed as Ki, was 27 µM.

With `Nc1ncnc2c1ncn2[C@@H]1O[C@H](CSCC[C@H](N)C(=O)O)[C@@H](O)[C@H]1O` [SAH], the Kd in data set [1] (read-out: SAH) turned out to be 2 ± 0.1 µM. The Ki in data set [2] was 7 µM.

On to `C[S+](CC[C@H](N)C(=O)O)C[C@H]1O[C@@H](n2cnc3c(N)ncnc32)[C@H](O)[C@@H]1O` (some centres unmarked) [SAM], for which, in data set [1], the Kd came out at 22 ± 2 µM.

By stoichiometry N is commonly meant the number of molecules, sites or subunits per partner or assembly. As to “N,N‐8‐demethyl‐8‐amino‐D‐riboflavin dimethyltransferase (RosA), hexahistidine‐tagged (enzyme)”, the stoichiometry N in data set [3] stood at 2.

B1: RosA (N,N-8-demethyl-8-amino-D-riboflavin dimethyltransferase) (Streptomyces davaonensis JCM 4913) (protein)
chain: MRPEPTEHPERTAAQRLYQYNVDLKVAFVLYAVAKLHLPDLLADGPRTTADLAAATGSDPSRLRRLLRAAAGADALREVPEDSFELAPMGDLLRSGHPRSMRGMTTFFAEPDVLAAYGDLVESVRTGVPAFQLRHREPLYDFLARPQHKEVRDEFDAAMVEFGQYFADDFLTSFDFGRFTRFADIGGGRGQFLAGVLTAVPSSTGVLVDGPAVAASAHKFLASQNLTERVEVRIGDFFDVLPTGCDAYVLRGVLEDWADADAVRLLVRIRQAMGDAPEARLLILDSVIGETGELGKVLDLDMLVLVEGEHRTRAQWDDLLARAGFDIVGIHPAGDVWAVIECRGTAG
notes: full length, hexahistidine-tagged (pET24a(+)rosA-His6, pFJ02), tag kept, E. coli Rosetta 2 (DE3); 353 amino acids; subunit 38 kDa, native 77 kDa, homodimer
Broadly, the Km is the substrate concentration at which the rate is half of its maximum. By kcat is commonly meant the number of substrate molecules converted per active site and unit of time at saturation. For B1, in “purified protein [4]”, the Km was found to be 70 µM and the catalytic constant (kcat) is 0.06 min⁻¹. Further, in the data set “purified protein [5]”, the Michaelis constant (Km) stood at 4 µM and the turnover number (kcat) was determined as 0.06 min⁻¹.
